Laboratory results as given in patent publication US11766044B2, “Method for controlling PPO resistant weeds” (BASF SE, priority 2016, dated 2023).

Test system: sensitive (w.7) and resistant weeds (w.8, w.9)
Type: in vivo, Amaranthus tuberculatus
Settings: table 3, 1 and 2 g/ha

CCOC(=O)COc1ncccc1Oc1cc(-n2c(=O)cc(C(F)(F)F)n(C)c2=O)c(F)cc1Cl [compound (I).1]
activity on both sensitive and resistant weeds: very good activity
